Patent US9717727B2, “Methods of treating and preventing leukemia and other cancers of the blood and bone” (The Trustees of Columbia University in the City of New York, priority 2011, dated 2017)

Columns and labels:
EL4 cells = experiment: EL4 leukemia mouse model, all mice sacrificed at day 15 (Example 10); format: in vivo
Protocol: Mice were sacrificed at pre-determined time points as specified before or upon signs of illness. Each animal was weighed before blood was sampled, and visually examined for tumor development. Spleens were isolated and weighed. Spleens and tissue samples from liver were fixed in 10% neutral formalin solution for 48 hours. Osseous samples (thoracic spine, sternum, pelvis, and stifle joint) were decalcified in Decalcifier System I (Leica Microsystems, Inc.) for 48 h after fixation. All tissues were processed by routine methods and embedded in paraffin Sections of 4 or 5 μm were stained with hematoxylin and eosin (H&E) according to standard procedures. Luciferase intensity was measured by plating 4.5 million bone marrow cells into 6-well plates. Luciferin was added at a final concentration of 150 μg/mL and luciferase activity was measured at a luminometer. Mice were treated orally with LP-533401 (25 or 200 mg per kg of body weight per day) or vehicle. Treatments started 15 days before malignant cell injections in all sets of experiments, and continued for the indicated periods of time. LP-533401 was dissolved in polyethylene glycol (PEG) and 5% dextrose or 2.5% glucose (Sigma), and given daily by oral gavage. Mice treated with vehicle were administered, in the same way as LP533401, a solution of PEG and 5% dextrose or 2.5% glucose, daily, by oral gavage. The same mice and techniques used in Example 9 were used in this Example, except all of the mice were sacrificed at day 15 following EL4 cell injection

[1] = tested on: WEHI/3B myelomonocytic leukemia cell line; experiment: WEHI/3B murine model of AML, tumor burden at tissue level (Example 12); format: in vivo, mice
Protocol: WEHI/3B, a macrophage-like myelomonocytic leukemia cell line established from inbred BALB/c mice, was used. BALB/cJ mice were inoculated with 1×10^6 Wehi-3 cells.
Mice were sacrificed at pre-determined time points as specified before or upon signs of illness. Each animal was weighed before blood was sampled, and visually examined for tumor development. Spleens were isolated and weighed. Spleens and tissue samples from liver were fixed in 10% neutral formalin solution for 48 hours. Osseous samples (thoracic spine, sternum, pelvis, and stifle joint) were decalcified in Decalcifier System I (Leica Microsystems, Inc.) for 48 h after fixation. All tissues were processed by routine methods and embedded in paraffin Sections of 4 or 5 μm were stained with hematoxylin and eosin (H&E) according to standard procedures.
Histomorphometric analyses were performed on vertebral column specimens collected from 2 months old mice using undecalcified sections using the osteomeasure analysis system (Osteometrics). Lumbar vertebrae were dissected, fixed for 24 hours in 10% formalin, dehydrated in graded ethanol series, and embedded in methyl methacrylate resin according to standard protocols (Chappard et al. (1987); Parfitt et al. (1987)).
Bone formation rate (BFR) was analyzed by the calcein double-labeling method. Calcein (Sigma) was dissolved in calcein buffer (0.15 M NaCl, 2% NaHCO3) and administered by an intraperitoneal injection of 25 μg/g body weight, 6 days and 2 days before sacrificing the animals. In experiments evaluating survival rates of animals, bone formation rate was not calculated due to the unknown time of death. Unstained 4-μm sections were used for BFR measurements.
For the analysis of parameters of osteoblast and osteoclast, 4-μm sections were stained with toluidine blue and tartrate-resistant acid phosphatase (TRAP), respectively. Type I collagen content and bone volume over trabecular volume (BV/TV) were analyzed using 7-μm sections by Von Gieson and Von Kossa staining […] respectively in undecalcified sections. Images were taken using a 10× objective on a Leica microscope outfitted with camera. Six to ten animals were analyzed for each group.
Total RNA was isolated from tissues or cultured cells using Trizol, according to the manufacturer's protocol (Invitrogen). Total RNA (2 μg) was treated with DNAse I (Invitrogen), and reverse transcribed at 42° C. with SuperScript II (Invitrogen). The expression of all the genes was measured by real-time quantitative PCR with the SYBR Green Master Mix (Bio-Rad) using β actin or 18s as endogenous control.
BALB/cJ mice purchased from Jackson Laboratory and injected with WEHI/3B, as described in Example 2, were used.
Mice were treated as described in Example 9 and classified as: • Mice with no leukemia treated with a vehicle, i.e., non-leukemic-vehicle-treated (“WT”); • Mice with no leukemia treated with LP-533401, i.e., non-leukemic-LP-533401-treated (“NL-LP”); • Mice with leukemia treated with a vehicle, i.e., leukemic-vehicle-treated (“Leuk-veh”); and • Mice with leukemia treated with LP-533401, i.e., leukemic-LP 533410-treated (“Leuk-LP”).
(§1) All mice were sacrificed after 2 weeks for the following assessments: • Serum serotonin levels as measured in Example 9; • Body weight as described in Example 2 • Spleen weight as described in Example 2; • Histological analysis of the femur, spleen and liver as described in Example 2; • Trabecular Bone Volume (Bv/TV) as described in Example 3; • and • Gene Expression analysis by PCR as described in Example 3. Results

serum serotonin = experiment: Serum serotonin levels, WEHI/3B study (Example 12); format: in vivo; conditions: non-leukemic mice treated with LP-533401 (NL-LP); BALB/cJ
Protocol: For measurements of serum serotonin levels, mice were briefly exposed to Isoflurane (Baxter) for 30 seconds and blood was collected by cardiac puncture. Similar volumes of blood were collected from different animals for consistency in the clotting times. Serum collection from all mice was done between 9:00 am and 12:00 pm. Blood was allowed to clot on ice for 5 minutes before centrifugation at maximum speed at 4° C. for 10 minutes. The serum supernatant was removed, snap frozen and stored at −80° C. for further analysis. Serum serotonin levels were quantified by ELISA (Serotonin kit, Fitzgerald) according to manufacturer's instructions. […]
as §1, with “Results” left out

[2] = among 14 mice treated (WEHI/3B)

Nc1nc(OC(c2ccc(-c3cccc(F)c3)cc2)C(F)(F)F)cc(-c2ccc(C[C@H](N)C(=O)O)cc2)n1 (stereo partly shown) [LP-533401]
leukemic infiltration in the marrow (histology) (EL4 cells; day 15): reduced leukemic infiltration | leukemic mice with 20 to 40% blasts in the bone marrow (EL4 cells; day 15): 40% | leukemic mice with increased megakaryocyte number (EL4 cells; day 15): 20% | leukemic mice with less than 20% of blasts in the bone marrow (EL4 cells; day 15): 40% | leukemic mice with more than 80% blasts in the bone marrow (EL4 cells; day 15): 20% | leukemia-induced changes in WBCs, monocytes, neutrophils and lymphocytes (EL4 cells; day 15, leukemic mice): all prevented | liver leukemic involvement (EL4 cells; day 15, leukemic mice): normal or only small size focal infiltrates | myeloid hyperplasia (EL4 cells; day 15, leukemic mice): Mild myeloid hyperplasia | prevalence of immature lymphoblastic cells in the blood compared to healthy controls (EL4 cells; day 15, leukemic mice): did not show an increase | EL4 tumor burden (EL4 cells; day 15, whole body and bone marrow): decreased in whole body and in the bone marrow | leukemia-caused decrease in bone volume, osteoblast numbers and bone formation rate (EL4 cells; day 15 after EL4 injection): ameliorated | osteoclast numbers (EL4 cells; day 15 after EL4 injection): Neither injection with EL4 cells nor treatment with LP-533401 affected osteoclast numbers | anemia observed in leukemic mice ([1]; WEHI/3B): inhibited | leukemia infiltration in the liver and spleen ([1]; WEHI/3B): limited leukemia infiltration in the liver and spleen | leukemia-caused decrease in trabecular bone volume, osteoblast numbers and bone formation rate ([1]; WEHI/3B): prevented the decrease | leukemic mice in which megakaryocyte numbers returned to normal ([1]; WEHI/3B): 70% | leukemic mice with normal myeloid:erythroid ratio ([1]; WEHI/3B): 50% | number of leukemia blasts (histology) ([1]; WEHI/3B): reduced number of leukemia blasts | osteoclast numbers ([1]; WEHI/3B): not affected | mice with less than 5% marrow blasts [1, 2]: 71% | number of mice with less than 5% marrow blasts [1, 2]: 10 | expression of osteoblast differentiating genes (osteocalcin, osterix, Runx2, alkaline phosphatase, collagen 1a1) ([1]; femur of leukemic mice (WEHI/3B), PCR): normalize the expression | cyclin D1 and D2 expression in bone (osteoblast proliferation) ([1]; leukemic mice (WEHI/3B)): increase in cyclin D1 and D2 expression | enlargement of the spleen (spleen weight) ([1]; leukemic mice (WEHI/3B)): alleviated | splenic red pulp ([1]; leukemic mice (WEHI/3B)): normal | animals with a blast percentage of 20% or more in the bone marrow ([1]; leukemic mice (WEHI/3B), 2 weeks): 28% | body weight ([1]; leukemic vs non-leukemic animals (WEHI/3B)): weight loss was not observed | decrease in serum serotonin levels compared to wild-type mice (serum serotonin): 50%
